This is an account of results in patent US20100041744A1, “OILY PACLITAXEL COMPOSITION AND FORMULATION FOR CHEMOEM[…] PREPARATION METHOD THEREOF” (priority 2001, published 2010).

Series [1] is described as follows: physchem. As to conditions: oil or lipid.
Protocol: (§1) One milliliter of Lipiodol (Lipiodol Ultra-fluid, Laboratoire Guerbet, France, Iodine content 38% by weight) was used as an oily contrast medium. Lipiodol and 2, 4, 6, 8, 10 or 11 mg of paclitaxel (Samyang Genex, Korea) were added in test tubes (micro test tubes with safety lock, polyethylene, 1.5 ml, Eppendorf AG, Germany) and solubilized by stirring at room temperature. To speed up the solubilization process, it is acceptable to raise the temperature to 35˜45° C. or to sonicate in a bath type sonicator.
(§2) One milliliter of Lipiodol (Lipiodol Ultra-fluid, Laboratoire Guerbet, France, Iodine content 38% by weight) and 10 mg of paclitaxel (Samyang Genex, Korea) were added in test tubes and solubilized by stirring at room temperature. To speed up the solubilization process, the temperature of the mixture was raised to 40° C.
(§3) A mixture of 1 ml of Lipiodol (Lipiodol Ultra-fluid, Laboratoire Guerbet, France, Iodine content 38% by weight) and 0.01 ml of tricaprylin (Sigma Chemical Co.) and 12 mg of paclitaxel (Samyang Genex, Korea) were added in a test tube and solubilized by stirring at room temperature. To speed up the solubilization process, the composition was sonicated in a bath type sonicator.
Series [2] can be described thus: Solubilization / solubility of paclitaxel in oily contrast medium.
Protocol: as §1, §2, §3

The term solubility denotes the concentration that dissolves in the medium under given conditions. A lower solubility goes with a poorly soluble substance.

Molecules are shown by their SMILES. In brackets after ≈: the same amount, converted by molar mass.

For the compound `CC(=O)O[C@H]1C(=O)[C@@]2(C)[C@H]([C@H](OC(=O)c3ccccc3)[C@]3(O)C[C@H](OC(=O)[C@H](O)[C@@H](NC(=O)c4ccccc4)c4ccccc4)C(C)=C1C3(C)C)[C@]1(OC(C)=O)CO[C@@H]1C[C@@H]2O` [paclitaxel], the solubility in series [1] (Lipiodol (oily contrast medium), 26 °C, thermodynamic from solid) was approximately 10000 µg/mL (≈ 11.7 mM); in series [1], not above 13000 µg/mL. Further, in series [2], the “solubility of paclitaxel in mixed oil system of lipiodol/tricaprylin compared with lipiodol alone” value is “higher”.
